How the values were obtained:
Type in all cases: biochemical
[1] = target: T1, FGFR3 (K650E) (Homo sapiens, UniProt P22607, K650E); assay: Recombinant GST-FGFR-3-K650E tyrosine kinase assay (33P into poly(Glu,Tyr)); conditions: 10 μM; Examples 1 to 169; read-out: FGFR3 (K650E) inhibition at 10 μM
T1 construct: amino acids 411-806 of the cytoplasmic domain of human FGFR-3, N-terminally fused to GST; made in house; host or cells: Sf9 insect cells (baculovirus)

[2] = target: T2, Tek (Homo sapiens, UniProt Q02763); assay: Recombinant GST-Tek (Tie-2) tyrosine kinase assay (33P into poly(Glu,Tyr)); conditions: Examples 1 to 169
T2 construct: amino acids 773-1124 of the cytoplasmic kinase domain of human Tek, N-terminally fused to GST; made in house; host or cells: Sf9 insect cells (baculovirus)
T2 sequence (Q02763 773-1124): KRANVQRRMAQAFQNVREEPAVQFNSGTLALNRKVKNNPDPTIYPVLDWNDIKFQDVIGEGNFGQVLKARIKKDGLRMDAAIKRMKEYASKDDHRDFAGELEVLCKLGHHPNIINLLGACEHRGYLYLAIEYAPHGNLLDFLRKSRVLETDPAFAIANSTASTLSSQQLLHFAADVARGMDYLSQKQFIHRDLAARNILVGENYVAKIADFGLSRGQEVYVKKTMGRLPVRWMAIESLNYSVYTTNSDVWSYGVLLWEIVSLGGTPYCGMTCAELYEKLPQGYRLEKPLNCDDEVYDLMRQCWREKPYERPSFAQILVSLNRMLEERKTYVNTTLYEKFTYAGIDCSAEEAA
From the text: (Tie-2/Tek): The baculovirus donor vector pFbacG01 was used to generate a recombinant baculovirus that expressed the amino acid region amino acids 773-1124 of the cytoplasmic kinase domain of human Tek, N-terminally fused to GST (Provided by Dr. Marmé, Institute of Molecular Medicine, Freiburg, Germany based on a Research Collaboration). Tek was recloned into the pFbacG01 transfer vector by EcoRI excision and ligation into EcoRI digested pFbacG01 (FBG-Tie2/Tek).
Production of virus: Transfer vectors containing the kinase domains were transfected into the DH10Bac cell line (GIBCO) and plated on selective agar plates. Colonies without insertion of the fusion sequence into the viral genome (carried by the bacteria) are blue. Single white colonies were picked and viral DNA (bacmid) isolated from the bacteria by standard plasmid purification procedures. Sf9 cells or Sf21 cells were then transfected in 25 cm^2 flasks with the viral DNA using Cellfectin reagent.
Determination of small scale protein expression in Sf9 cells: Virus containing media was collected from the transfected cell culture and used for infection to increase its titer. Virus containing media obtained after two rounds of infection was used for large-scale protein expression. For large-scale protein expression 100 cm^2 round tissue culture plates were seeded with 5×10^7 cells/plate and infected with 1 mL of virus-containing media (approx. 5 MOIs). After 3 days the cells were scraped off the plate and centrifuged at 500 rpm for 5 min. Cell pellets from 10-20, 100 cm^2 plates, were resuspended in 50 mL of ice-cold lysis buffer (25 mMTris-HCl, pH7.5, 2 mMEDTA, 1% NP-40, 1 mM DTT, 1 mMP MSF). The cells were stirred on ice for 15 min and then centrifuged at 5000 rpms for 20 min.
Purification of GST-tagged proteins: The centrifuged cell lysate was loaded onto a 2 mL glutathione-sepharose column and washed three times with 10 mL of 25 mM Tris-HCl, pH 7.5, 2 mM EDTA, 1 mM DTT, 200 mM NaCl. The GST-tagged proteins were then eluted by 10 applications (1 mL each) of 25 mM Tris-HCl, pH 7.5, 10 mM reduced-glutathione, 100 mM NaCl, 1 mM DTT, 10% Glycerol and stored at −70° C.
Measure of enzyme activity: Tyrosine protein kinase assays with either purified GST-Ret, GST-Tek or GST-FGFR-3-K650E were carried out in a final volume of 30 μL with final concentrations of the following components: Ret included 15 ng of GST-Ret, 20 mM Tris-HCl, pH 7.5, 1 mM MnCl2, 10 mM MgCl2, 1 mM DTT, 3 μg/mL poly(Glu,Tyr) 4:1, 1% DMSO and 2.0 μM ATP (γ-[^33P]-ATP 0.1 μCi). Tek included 150 ng of GST-Tek, 20 mM Tris-HCl, pH 7.5, 3 mM MnCl2, 3 mM MgCl2, 1 mM DTT, 0.01 mM Na3VO4, 250 μg/mL PEG 20'000, 10 μg/mL poly(Glu,Tyr) 4:1, 1% DMSO and 4.0 μM ATP (γ-[^33P]-ATP 0.1 μCi). FGFR-3-K650E included 10 ng of GST-FGFR-3-K650E, 20 mM Tris-HCl, pH 7.5, 3 mM MnCl2, 3 mM MgCl2, 1 mM DTT, […], 10 μg/mL poly(Glu,Tyr) 4:1, 1% DMSO and 4.0 μM ATP (γ-[^33P]-ATP 0.1 μCi).The activity was assayed in the presence or absence of inhibitors, by measuring the incorporation of ^33P from [γ^33P] ATP into poly(Glu,Tyr) 4:1. The assay was carried out in 96-well plates at ambient temperature for 30 min under conditions described below and terminated by the addition of 50 μL of 125 mM EDTA. Subsequently, 60 μL of the reaction mixture were transferred onto Immobilon-PVDF membrane (Millipore) previously soaked for 5 min with methanol, rinsed with water, then soaked for 5 min with 0.5% H3PO4 and mounted on vacuum manifold with disconnected vacuum source. After spotting all samples, vacuum was connected and each well rinsed with 200 μL 0.5% H3PO4. Membranes were removed and washed 4× on a shaker with 1.0% H3PO4, once with ethanol. Membranes were counted after drying at ambient temperature, mounting in Packard TopCount 96-well frame, and addition of 10 μL/well of Microscint™ (Packard). […]

[3] = target: T3, KDR (Homo sapiens, UniProt P35968); assay: Inhibitory activity against KDR (VEGF-R2), in vitro data of Examples 170 and 207; conditions: 10 μM; Examples 1 to 169; read-out: KDR inhibition at 10 μM
T3 construct: expressed in transfected cells; host or cells: CHO cells
T3 sequence (P35968 20-1356): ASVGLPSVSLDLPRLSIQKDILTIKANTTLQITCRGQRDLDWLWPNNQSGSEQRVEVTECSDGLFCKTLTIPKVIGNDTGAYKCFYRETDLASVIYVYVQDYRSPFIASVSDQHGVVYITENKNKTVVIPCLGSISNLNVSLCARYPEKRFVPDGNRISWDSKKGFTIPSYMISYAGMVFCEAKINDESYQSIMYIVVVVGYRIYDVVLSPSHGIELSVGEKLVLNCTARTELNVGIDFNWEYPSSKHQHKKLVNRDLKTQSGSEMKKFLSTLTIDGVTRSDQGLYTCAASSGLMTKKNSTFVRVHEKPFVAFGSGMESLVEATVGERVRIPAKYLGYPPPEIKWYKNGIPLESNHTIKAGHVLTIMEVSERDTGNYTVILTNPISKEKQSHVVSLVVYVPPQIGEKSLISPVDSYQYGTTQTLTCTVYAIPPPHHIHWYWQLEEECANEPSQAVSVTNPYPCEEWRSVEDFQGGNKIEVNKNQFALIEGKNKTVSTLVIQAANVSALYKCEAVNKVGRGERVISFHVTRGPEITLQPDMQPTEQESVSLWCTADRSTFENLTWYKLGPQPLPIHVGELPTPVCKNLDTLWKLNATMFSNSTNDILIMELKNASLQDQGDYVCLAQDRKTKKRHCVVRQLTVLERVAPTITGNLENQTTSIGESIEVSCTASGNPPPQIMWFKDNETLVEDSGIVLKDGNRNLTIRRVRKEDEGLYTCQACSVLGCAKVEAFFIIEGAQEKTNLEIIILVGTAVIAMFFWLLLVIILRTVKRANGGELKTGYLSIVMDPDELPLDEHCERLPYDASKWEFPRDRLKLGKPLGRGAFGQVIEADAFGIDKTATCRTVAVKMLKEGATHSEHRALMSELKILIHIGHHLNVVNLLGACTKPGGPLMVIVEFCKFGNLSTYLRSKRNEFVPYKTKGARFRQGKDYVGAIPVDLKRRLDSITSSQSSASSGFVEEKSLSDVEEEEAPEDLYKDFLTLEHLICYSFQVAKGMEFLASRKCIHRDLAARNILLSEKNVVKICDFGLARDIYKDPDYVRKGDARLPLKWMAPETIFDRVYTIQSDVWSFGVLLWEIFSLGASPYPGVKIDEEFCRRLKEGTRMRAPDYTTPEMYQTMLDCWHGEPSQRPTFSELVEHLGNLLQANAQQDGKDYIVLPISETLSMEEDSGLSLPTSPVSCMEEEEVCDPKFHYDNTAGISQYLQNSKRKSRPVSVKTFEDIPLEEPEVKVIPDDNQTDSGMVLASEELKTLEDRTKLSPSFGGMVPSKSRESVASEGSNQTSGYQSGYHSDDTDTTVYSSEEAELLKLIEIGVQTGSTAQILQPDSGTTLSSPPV
Description: (Controls comprise medium without test compounds). After two hours of incubation at 37° C., recombinant VEGF is added; the final VEGF concentration is 20 ng/ml. After a further five minutes incubation at 37° C., the cells are washed twice with ice-cold PBS (phosphate-buffered saline) and immediately lysed in 100 μl lysis buffer per well. The lysates are then centrifuged to remove the cell nuclei, and the protein concentrations of the supernatants are determined using a commercial protein assay (BIORAD). The lysates can then either be immediately used or, if necessary, stored at −20° C. […] The plates are then washed and the remaining free protein-binding sites are saturated with 3% TopBlock® (Juro, Cat. # TB232010) in phosphate buffered saline with Tween 20® (polyoxyethylen(20)sorbitane monolaurate, ICI/Uniquema) (PBST). The cell lysates (20 μg protein per well) are then incubated in these plates overnight at 4° C. together with an antiphosphotyrosine antibody coupled with alkaline phosphatase (PY20:AP from Zymed). […] The luminescence is measured in a Packard Top Count Microplate Scintillation Counter.

T1 sequence (P22607 411-806 K650E): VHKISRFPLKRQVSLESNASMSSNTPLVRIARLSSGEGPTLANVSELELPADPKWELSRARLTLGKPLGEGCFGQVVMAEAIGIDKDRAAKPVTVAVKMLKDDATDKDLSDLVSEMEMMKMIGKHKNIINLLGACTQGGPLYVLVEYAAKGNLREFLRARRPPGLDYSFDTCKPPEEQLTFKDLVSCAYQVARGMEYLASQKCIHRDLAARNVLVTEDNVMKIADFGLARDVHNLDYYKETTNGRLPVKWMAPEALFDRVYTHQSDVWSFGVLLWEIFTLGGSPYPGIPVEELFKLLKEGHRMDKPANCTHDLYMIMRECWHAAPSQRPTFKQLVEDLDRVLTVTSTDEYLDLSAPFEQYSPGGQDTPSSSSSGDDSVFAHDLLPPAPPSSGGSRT

inhibition at 10 µM [1] [%] | inhibition at 10 µM [2] [%] | inhibition at 10 µM [3] [%] | Compound
27 to 100 | 12 to 100 | 67 to 100 | CN(C(=O)Nc1c(Cl)cccc1Cl)c1cc(Nc2cccc(Cl)c2)ncn1 [Example 124, 1-[6-(3-Chloro-phenylamino)-pyrimidin-4-yl]-3-(2,6-dichloro-phenyl)-1-methyl-urea]
27 to 100 | 12 to 100 | 67 to 100 | CN1CCN(c2cccc(Nc3cc(NC(=O)Nc4cc(C(F)(F)F)cc(C(F)(F)F)c4)ncn3)c2)CC1 [Example 21, 1-(3,5-Bis-trifluoromethyl-phenyl)-3-{6-[3-(4-methyl-piperazin-1-yl)-phenylamino]-pyrimidin-4-yl}-urea]
27 to 100 | 12 to 100 | 67 to 100 | CCN(CC)CCOc1ccc(Nc2cc(NC(=O)Nc3ccccc3Cl)ncn2)cc1 [Example 126, 1-(2-Chloro-phenyl)-3-{6-[4-(2-diethylamino-ethoxy)-phenylamino]-pyrimidin-4-yl}-urea]
27 to 100 | 12 to 100 | 67 to 100 | COc1ccc(OC)c(NC(=O)Nc2cc(Nc3ccc(N4CCN(C)CC4)cc3)ncn2)c1 [Example 12, 1-(2,5-Dimethoxy-phenyl)-3-{6-[4-(4-methyl-piperazin-1-yl)-phenyl-amino]-pyrimidin-4-yl}-urea]
27 to 100 | 12 to 100 | 67 to 100 | CCN(C(=O)Nc1c(Cl)c(OC)cc(OC)c1Cl)c1cc(Nc2ccc(OC3CCN(C)CC3)cc2)ncn1 [Example 166, 3-(2,6-Dichloro-3,5-dimethoxy-phenyl)-1-ethyl-{6-[4-(1-methyl-piperidin-4-yloxy)-phenylamino]-pyrimidin-4-yl}-urea]
27 to 100 | 12 to 100 | 67 to 100 | CCN(C(=O)Nc1cccc(OC)c1OC)c1cc(Nc2ccc(N3CCN(C)CC3)cc2)ncn1 [Example 46, 3-(2,3-Dimethoxy-phenyl)-1-ethyl-1-{6-[4-(4-methyl-piperazin-1-yl)-phenylamino]-pyrimidin-4-yl}-urea]
27 to 100 | 12 to 100 | 67 to 100 | CN1CCN(c2cccc(Nc3cc(NC(=O)Nc4cc(Cl)cc(Cl)c4)ncn3)c2)CC1 [Example 11, 1-(3,5-Dichloro-phenyl)-3-{6-[3-(4-methyl-piperazin-1-yl)-phenylamino]-pyrimidin-4-yl}-urea]
27 to 100 | 12 to 100 | 67 to 100 | COc1cc(NC(=O)N(C)c2cc(Nc3cccc(OCCN(C)C)c3)ncn2)c(Cl)c(OC)c1 [Example 54, 3-(2-Chloro-3,5-dimethoxy-phenyl)-1-{6-[3-(2-dimethylamino-ethoxy)-phenylamino]-pyrimidin-4-yl}-1-methyl-urea]
27 to 100 | 12 to 100 | 67 to 100 | CN(C)c1cccc(Nc2cc(NC(=O)Nc3c(Cl)cccc3Cl)ncn2)c1 [Example 119, 1-(2,6-Dichloro-phenyl)-3-[6-(3-dimethylamino-phenylamino)-pyrimidin-4-yl]-urea]
27 to 100 | 12 to 100 | 67 to 100 | O=C(Nc1cc(Nc2ccc(OCCCN3CCOCC3)cc2)ncn1)Nc1ccccc1Br [Example 99, 1-(2-Bromo-phenyl)-3-{6-[4-(3-morpholin-4-yl-propoxy)-phenylamino]-pyrimidin-4-yl}-urea]
27 to 100 | 12 to 100 | 67 to 100 | O=C(Nc1cc(Nc2ccc(OCCCN3CCOCC3)cc2)ncn1)Nc1c(Cl)cccc1Cl [Example 98, 1-(2,6-Dichloro-phenyl)-3-{6-[4-(3-morpholin-4-yl-propoxy)-phenylamino]-pyrimidin-4-yl}-urea]
27 to 100 | 12 to 100 | 67 to 100 | CCN(CC)CCOc1ccc(Nc2cc(N(C)C(=O)Nc3cc(OC)cc(OC)c3Cl)ncn2)cc1 [Example 53, 3-(2-Chloro-3,5-dimethoxy-Phenyl)-1-{6-[4-(2-diethylamino-ethoxy)-phenylamino]-pyrimidin-4-yl}-1-methyl-urea]
27 to 100 | 12 to 100 | 67 to 100 | CN1CCN(c2ccc(Nc3cc(NC(=O)Nc4cc(C(F)(F)F)cc(C(F)(F)F)c4)ncn3)cc2)CC1 [Example 20, 1-(3,5-Bis-trifluoromethyl-phenyl)-3-{6-[4-(4-methyl-piperazin-1-yl)-phenylamino]-pyrimidin-4-yl}-urea]
27 to 100 | 12 to 100 | 67 to 100 | O=C(Nc1cc(Nc2ccc(N3CCOCC3)cc2)ncn1)Nc1c(Cl)cccc1Cl [Example 108, 1-(2,6-Dichloro-Phenyl)-3-[6-(4-morpholin-4-yl-phenylamino)-pyrimidin-4-yl]-urea]
27 to 100 | 12 to 100 | 67 to 100 | O=C(Nc1cc(Nc2cccc(Cl)c2)ncn1)Nc1ccccc1Cl [Example 128, 3-(2-Chloro-phenyl)-1-[6-(3-chloro-phenylamino)-pyrimidin-4-yl]-urea]
27 to 100 | 12 to 100 | 67 to 100 | O=C(Nc1cc(Nc2ccc(F)cc2)ncn1)Nc1c(Cl)cccc1Cl [Example 115, 1-(2,6-Dichloro-phenyl)-3-[6-(4-fluoro-phenylamino)-pyrimidin-4-yl]-urea]
27 to 100 | 12 to 100 | 67 to 100 | COc1cc(NC(=O)N(Cc2cccs2)c2cc(Nc3ccc(N4CCN(C)CC4)cc3)ncn2)c(Cl)c(OC)c1 [Example 56, 3-(2-Chloro-3,5-dimethoxy-phenyl)-1-{6-[4-(4-methyl-piperazin-1-yl)-phenylamino]-pyrimidin-4-yl}-1-thiophen-2-ylmethyl-urea]

Source: patent US8552002B2 (Novartis AG, priority 2004, dated 2013)
